Experimental data published in patent publication US12427147B2, “Retinal ganglion cell death inhibitor” (SENJU PHARMACEUTICAL CO., LTD., priority 2018, dated 2025).

Assays:
[1] = system: rat retinal ganglion cells; assay: Menadione-induced retinal ganglion cell death, low-molecular ALK3 inhibitors (Example 2); type: cell-based; settings: 6 μM menadione; for dose dependence of cell death inhibitory effect: 100 nM to 10 μM K02288, 100 nM to 1 μM LDN-193189; for cell death inhibitory effect compared to the group treated with menadione alone / protection of cells from retinal ganglion cell death induced by menadione: 18 hours
Protocol: Rat retinal ganglion cells were isolated in the same manner as in Example 1. In the experimental system (FIG. 2A) of K02288 treatment, three rats were used; whereas, in the experimental system (FIG. 2B) of LDN-193189 treatment, two rats were used.
Retinal ganglion cells were suspended in RGC culture medium and seeded in the wells of a 96-well plate at a density of 1×10^4 cells/well and cultured at 37° C. under a 5% CO2 atmosphere for 24 hours. Twenty four hours later, the medium was removed. To a medium for a menadione reaction, 6 μM menadione and ALK3 inhibitors, i.e., K02288 (Tocris Bioscience) or LDN-193189 (MedChemExpress) (PLOS ONE 2013 8 (4) e62721) were added in accordance with the constitutions of individual groups. DMSO was added to a non K02288 treatment group or a non LDN-193189 treatment group, (a group treated with menadione alone). The cells were incubated at 37° C. for 18 hours and thereafter stained by use of LIVE/DEAD Viability/Cytotoxicity Kit (Thermo Fisher Scientific Inc.). Three photographs per well were taken by use of IncuCyte S3 live cell analysis system (Essen Bioscience) and analyzed. Data was calculated as the ratio of the number of survival cells relative to a total number of dead cells and survival cells. The RGC culture medium and medium for a menadione reaction used herein are the same as those used in Example 1.
Constitutions of groups (a group treated with K02288: n=8, a group treated with LDN-193189: n=6)
Control group: menadione was absent
A group treated with menadione alone: menadione and DMSO were added
A group treated with K02288 (3 groups: 100 nM, 1 μM, 10 μM): menadione and K02288 were added
A group treated with LDN-193189 (2 groups: 100 nM, 1 μM): menadione and LDN-193189 were added.

[2] = system: rat retinal ganglion cells; assay: Menadione-induced retinal ganglion cell death, antibody/K02288 treatment (Example 1); type: cell-based; settings: 6 μM menadione, 18 hours, vs Normal IgG treatment group, n=3, FIG. 1C
Protocol: The retina was taken out from each of 7 days-old SD rats (13 rats) (Japan SLC Co., Ltd.) and retinal cells were dispersed by Dissociation Kit-Postnatal Neurons (Miltenyi Biotec). Thereafter, retinal ganglion cells (RGC) were isolated from other retinal cells by use of Retinal Ganglion Cell Isolation Kits (Miltenyi Biotec).
The retinal ganglion cells were suspended in RGC culture medium, seeded in the wells of a 96-well plate at a density of 2×10^4 cells/well and cultured at 37° C. under a 5% CO2 atmosphere for 24 hours. Twenty four hours later, the medium was removed. To a medium for a menadione reaction, 6 μM menadione, Normal rabbit IgG (Santa Cruz Biotechnology, Inc.), an anti-ALK3 antibody (Anti-BMPR1A antibody, Abcam plc.), an anti-ALK4 antibody (anti-Activin A receptor Type IB antibody, Abcam plc.) and an ALK3 inhibitor, i.e., K02288 (Tocris Bioscience) (PLOS ONE 2013 8 (4) e62721) were added in accordance with the constitutions of individual groups (described later) and incubation was performed at 37° C. for 18 hours. […] Three photographs per well were taken by IncuCyte S3 live cell analysis system (Essen Bioscience) and analyzed. Data was calculated as the ratio of the number of survival cells relative to a total number of dead cells and survival cells. […]

retinal ganglion cells = settings: mouse retina, Non Patent Literature 1; cited from earlier work
[3] = 1 μM test compound, FIGS. 2A and 2B

c1ccc2c(-c3cnn4cc(-c5ccc(N6CCNCC6)cc5)cnc34)ccnc2c1 [LDN-193189, 4-[6-(4-piperazin-1-yl-phenyl)-pyrazolo[1,5-α]pyrimidin-3-yl]-quinoline]
dose dependence of cell death inhibitory effect [1]: cell death inhibitory effect in a dose-dependent manner
cell death inhibitory effect compared to the group treated with menadione alone [1, 3]: significant cell death inhibitory effect
protection of cells from retinal ganglion cell death induced by menadione [1]: exerted an effect to protect cells

COc1cc(-c2cc(-c3cccc(O)c3)cnc2N)cc(OC)c1OC [K02288, 3-[6-amino-5-(3,4,5-trimethoxyphenyl)-3-pyridinyl]-phenol]
suppression of retinal ganglion cell death (ratio of survival cells to total cells) [2]: cell death was significantly suppressed
dose dependence of cell death inhibitory effect [1]: cell death inhibitory effect in a dose-dependent manner
cell death inhibitory effect compared to the group treated with menadione alone [1, 3]: significant cell death inhibitory effect
protection of cells from retinal ganglion cell death induced by menadione [1]: exerted an effect to protect cells
cell death inhibitory effect compared to the group treated with menadione alone ([1]; 10 μM test compound, FIG. 2A): significant cell death inhibitory effect

B1: BMP4: a kind of BMP (bone morphogenetic protein) (protein, UniProt P12644 293-408, looked up)
Bone morphogenetic protein 4: SPKHHSQRARKKNKNCRRHSLYVDFSDVGWNDWIVAPPGYQAFYCHGDCPFPLADHLNSTNHAIVQTLVNSVNSSIPKACCVPTELSAISMLYLDEYDKVVLKNYQEMVVEGCGCR
effect on retinal ganglion cell death induced by NMDA (retinal ganglion cells): suppressed

B2: Noggin: a BMP inhibitor (naturally occurring protein) (protein, UniProt Q13253 28-232, looked up)
Noggin: QHYLHIRPAPSDNLPLVDLIEHPDPIFDPKEKDLNETLLRSLLGGHYDPGFMATSPPEDRPGGGGGAAGGAEDLAELDQLLRQRPSGAMPSEIKGLEFSEGLAQGKKQRLSKKLRRKLQMWLWSQTFCPVLYAWNDLGSRFWPRYVKVGSCFSKRSCSVPEGMVCKPSKSVHLTVLRWRCQRRGGQRCGWIPIQYPIISECKCSC
effect on retinal ganglion cell death induced by NMDA (retinal ganglion cells): accelerated
